In patent US7728012B2, “Carboxamide compounds and their use as calpain inhibitors” (Abbott GmbH & Co. KG, priority 2006, dated 2010):

Columns and labels:
Type in all cases: biochemical
[1] = biological target: T1, cathepsin K activated from recombinant human procathepsin K (Homo sapiens, UniProt P43235); assay: Cathepsin K kinetic fluorescence enzyme inhibition assay; details: selectivity ratio versus calpain I
T1 construct: purchased Calbiochem 342001; host or cells: E. coli
T1 sequence (P43235 115-329): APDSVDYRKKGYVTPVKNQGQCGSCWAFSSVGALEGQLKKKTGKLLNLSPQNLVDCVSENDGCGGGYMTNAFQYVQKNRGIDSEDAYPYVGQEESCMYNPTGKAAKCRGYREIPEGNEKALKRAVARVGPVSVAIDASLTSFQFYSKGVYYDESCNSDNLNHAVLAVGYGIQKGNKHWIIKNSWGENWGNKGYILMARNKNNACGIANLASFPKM

[2] = biological target: T2, cathepsin L isolated from human liver (Homo sapiens, UniProt P07711); assay: Cathepsin L kinetic fluorescence enzyme inhibition assay; details: selectivity ratio versus calpain I
T2 construct: cathepsin L—isolated from human liver; purchased Calbiochem 219402; host or cells: human liver (tissue isolate)
T2 sequence (P07711 114-333): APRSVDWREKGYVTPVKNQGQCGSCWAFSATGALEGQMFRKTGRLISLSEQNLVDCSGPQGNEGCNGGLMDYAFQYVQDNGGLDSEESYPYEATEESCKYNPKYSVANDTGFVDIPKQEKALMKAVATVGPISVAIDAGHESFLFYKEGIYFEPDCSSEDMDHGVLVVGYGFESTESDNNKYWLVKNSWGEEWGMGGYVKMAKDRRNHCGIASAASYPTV
In short: (§1)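 cat B 0.25 nM + Z-Phe-Arg-AMC 100 μM; cat L 1 nM + Z-Phe-Arg-AMC 2 μM; cat S 0.5 nM (E. coli-expressed) + Z-Val-Val-Arg-AMC 20 μM. 50 mM MES pH 6.0, 2.5 mM L-Cys, RT. Ex 390/em 460, kinetic; Ki app = Cheng-Prusoff from IC50, mean of 2–4 curves.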

[3] = biological target: T3, recombinant human cathepsin S (Homo sapiens, UniProt P25774); assay: Cathepsin S kinetic fluorescence enzyme inhibition assay; details: selectivity ratio versus calpain I
T3 construct: purchased Calbiochem 219343; host or cells: E. coli
T3 sequence (P25774 115-331): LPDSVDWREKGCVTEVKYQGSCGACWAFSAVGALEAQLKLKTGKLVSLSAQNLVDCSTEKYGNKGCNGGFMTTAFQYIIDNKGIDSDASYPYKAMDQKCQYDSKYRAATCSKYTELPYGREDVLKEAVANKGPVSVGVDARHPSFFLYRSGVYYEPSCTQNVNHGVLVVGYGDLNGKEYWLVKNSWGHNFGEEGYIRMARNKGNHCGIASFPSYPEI
In short: as §1

[4] = biological target: T4, calpain-I isolated from human erythrocytes (Homo sapiens, UniProt P07384); assay: Calpain I kinetic fluorescence enzyme inhibition assay; details: apparent Ki from IC50 by Cheng-Prussoff; average of 2 to 4 dose-effect plots
T4 construct: calpain-I—isolated from human erythrocytes; purchased Calbiochem 208713; host or cells: human erythrocytes (tissue isolate)
T4 sequence (P07384 1-714): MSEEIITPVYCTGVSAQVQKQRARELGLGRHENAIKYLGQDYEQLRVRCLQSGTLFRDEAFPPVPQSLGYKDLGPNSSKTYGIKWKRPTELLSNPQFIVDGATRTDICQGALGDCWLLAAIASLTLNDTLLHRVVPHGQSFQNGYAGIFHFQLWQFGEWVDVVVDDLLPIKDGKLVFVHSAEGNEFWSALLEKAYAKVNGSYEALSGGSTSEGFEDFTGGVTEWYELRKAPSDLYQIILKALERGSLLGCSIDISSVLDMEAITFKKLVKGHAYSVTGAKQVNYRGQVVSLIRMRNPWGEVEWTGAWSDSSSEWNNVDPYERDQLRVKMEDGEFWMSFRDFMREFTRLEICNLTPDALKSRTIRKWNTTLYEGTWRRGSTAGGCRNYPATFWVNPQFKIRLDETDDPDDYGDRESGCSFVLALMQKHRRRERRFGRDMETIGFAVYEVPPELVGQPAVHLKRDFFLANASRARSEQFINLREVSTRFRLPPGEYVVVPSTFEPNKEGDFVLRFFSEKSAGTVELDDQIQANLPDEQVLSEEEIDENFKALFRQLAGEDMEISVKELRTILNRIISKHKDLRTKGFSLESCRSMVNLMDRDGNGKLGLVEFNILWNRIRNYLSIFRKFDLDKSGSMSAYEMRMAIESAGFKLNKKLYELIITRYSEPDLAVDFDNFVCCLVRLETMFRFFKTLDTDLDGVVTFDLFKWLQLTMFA
T4 sequence (P04632 1-268 partner): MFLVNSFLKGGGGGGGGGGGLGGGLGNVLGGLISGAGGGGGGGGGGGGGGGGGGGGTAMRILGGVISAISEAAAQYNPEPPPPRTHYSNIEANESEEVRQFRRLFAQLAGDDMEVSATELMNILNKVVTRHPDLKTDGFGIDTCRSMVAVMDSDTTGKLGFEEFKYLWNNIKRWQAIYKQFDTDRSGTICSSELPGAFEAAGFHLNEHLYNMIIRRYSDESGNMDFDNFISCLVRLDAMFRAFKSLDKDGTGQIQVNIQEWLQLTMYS

[5] = biological target: T5, cathepsin B isolated from human liver (Homo sapiens, UniProt P07858); assay: Cathepsin B kinetic fluorescence enzyme inhibition assay; details: selectivity ratio versus calpain I
T5 construct: cathepsin B—isolated from human liver; purchased Calbiochem 219362; host or cells: human liver (tissue isolate)
In short: as §1

Ki [4] | SMILES | Sel cat. K (Ki(cathepsin K)/Ki(calpain) ratio) [1] | Sel cat. L (Ki(cathepsin L)/Ki(calpain) ratio) [2] | Sel cat. S (Ki(cathepsin S)/Ki(calpain) ratio) [3] | Sel cat. B (Ki(cathepsin B)/Ki(calpain) ratio) [5]
40 to 100 nM | NC(=O)C(=O)C(Cc1ccc(F)cc1)NC(=O)c1cccnc1-n1ccc(-c2ccc(Cl)cc2Cl)n1 (stereo not shown) [Example 114, N-{-3-Amino-1-[(4-fluorophenyl)methyl]-2,3-dioxopropyl}-2-[3-(2,4-dichlorophenyl)-1H-pyrazol-1-yl]pyridine-3-carboxamide] | ++ (Ki(cathepsin K)/Ki(calpain) ratio of ≧30) | ++ (Ki(cathepsin L)/Ki(calpain) ratio of ≧50) | ++ (Ki(cathepsin S)/Ki(calpain) ratio of ≧100) | ++ (Ki(cathepsin B)/Ki(calpain) ratio of ≧30)
40 to 100 nM | COc1cc(Cl)ccc1-c1ccn(-c2ncccc2C(=O)NC(Cc2ccccc2)C(=O)C(N)=O)n1 (stereo not shown) [Example 139, N-[3-Amino-2,3-dioxo-1-(phenylmethyl)propyl]-2-{3-[4-chloro-2-(methyloxy)phenyl]-1H-pyrazol-1-yl}pyridine-3-carboxamide] | ++ (Ki(cathepsin K)/Ki(calpain) ratio of ≧30) | ++ (Ki(cathepsin L)/Ki(calpain) ratio of ≧50) | ++ (Ki(cathepsin S)/Ki(calpain) ratio of ≧100) | + (10≦Ki(cathepsin B)/Ki(calpain)<30)
